Data: paper PMC8252455, “Prediction of a clinically effective dose of THY1773, a novel V 1B receptor antagonist, based on preclinical data” (Biopharmaceutics & Drug Disposition, 2021)
Marks after values point to notes of the source that are not given here.

Experiments:
[1] = Metabolic stability in rat liver microsomes; type: in vitro ADME; settings: 1 μmol/L
Method: The oxidative metabolism of THY1773 was evaluated in rat and dog liver microsomes. THY1773 (1 μmol/L) was incubated with pooled liver microsomes (0.25 mg protein/ml) in sodium–potassium phosphate buffer (pH 7.4) consisting of 100 mmol/L sodium phosphate, 100 mmol/L potassium chloride, 2.5 mmol/L magnesium chloride (MgCl2), 1.5 mmol/L glucose‐6‐phosphate (G‐6‐P), and 0.18 units/ml G‐6‐P dehydrogenase (G‐6‐PDH). The reactions were initiated by the addition of β‐nicotinamide–adenine dinucleotide phosphate, oxidized form (NADP^+, 0.16 mmol/L), and incubated for 10, 20, 30, 40, 50, and 60 min. […] The intrinsic clearance (CLint) was calculated by the substrate depletion method described by Naritomi et al. (2001).
Since the CLliver was underestimated in rats and dogs from CLint in liver microsomes, the ratio of observed in vivo CLint and predicted CLint was calculated as the empirical scaling factor (ESF) for the extrapolation of CLliver from in vitro data. […] The total plasma clearance (CLtotal) was calculated by Equation (4): (4) CLtotal=QH×fu×(CLint/fu,mic)/QH+(fu/Rb)×(CLint/fu,mic)+CLrenal where QH is hepatic blood flow, fu is the free fraction in plasma, fu,mic is the fraction unbound in HLMs, Rb is blood‐to‐plasma ratio, and CLrenal is renal clearance. The fu,mic value was calculated using the Simcyp population based simulator (Version 16 R1; Simcyp Ltd.). […]

[2] = test system: CYP3A; test: Reaction phenotyping in HLMs with ketoconazole; type: in vitro ADME, human
Method: Reaction phenotyping using cDNA expressed recombinant human CYP isoforms, CYP1A2, CYP2B6, CYP2C8, CYP2C9, CYP2C19, CYP2D6, and CYP3A4, was conducted. Each recombinant enzyme (100 pmol/ml) in potassium phosphate buffer (pH 7.4; 100 mmol/L for CYP3A4, 50 mmol/L for the others) was preincubated with [^3H]THY1773 (10 μmol/L) at 37°C for 5 min. The reactions were initiated by the addition of NADPH‐generating system (1 mmol/L NADP^+, 5 mmol/L G‐6‐P, 1 unit/ml G‐6‐PDH, and 5 mmol/L MgCl2) and incubated for 0 or 60 min. The reactions were terminated by the addition of an equal volume of acetonitrile/methanol (9:1, vol/vol), followed by centrifugation at 1650 × g for 10 min at 4°C. An aliquot of the supernatant was subjected to an Agilent 1200 HPLC system (Agilent Technologies, Inc.) equipped with a radiochemical flow detector (Radiomatic 625TR; Perkin Elmer, Inc.), and formation of metabolites was evaluated. […] The CLint was calculated by the method as described previously under metabolic stability in animal liver microsomes, and the fraction metabolized (fm) was calculated by Equation (1): (1) fm=1−(CLint, with inh/CLint) where CLint is intrinsic clearance without specific inhibitor and CLint,with inh is intrinsic clearance in the presence of specific inhibitor.

[3] = Prediction of human CLtotal (FCIM, two-species allometry, IVIVE)
Text: Of the many reported methods for the prediction of human CL, the top two methods reported by Ring et al. (2011) were selected based on prediction accuracy; that is, the unbound fraction corrected intercept method (FCIM) and two‐species‐based allometry (rat and dog) described by Equations (2) and (3), respectively (Tang, Hussain, Leal, Mayersohn, & Fluhler, 2007; Tang & Mayersohn, 2005): (2) CLhuman(mL/min/kg)=33.35×(a/Rfu)^0.77/Humanbodyweight(kg) (3) CL=a×(Humanbodyweight)^0.628 where the allometric coefficient (a) is obtained from the intercept of the simple allometry log–log plot between rats and dogs, and Rfu is the ratio of unbound fraction in plasma between rats and humans. Human body weight was assumed to be 70 kg. The hepatic CL (CLliver) was also predicted by physiologically based in vitro–in vivo extrapolation (IVIVE) method using physiological parameters listed in Table 1 based on the well stirred model (Yang, Jamei, Yeo, Rostami‐Hodjegan, & Tucker, 2007).
Since the CLliver was underestimated in rats and dogs from CLint in liver microsomes, the ratio of observed in vivo CLint and predicted CLint was calculated as the empirical scaling factor (ESF) for the extrapolation of CLliver from in vitro data. Human CLliver was predicted from CLint in HLMs with and without applying the average of ESF derived from rats and dogs. The total plasma clearance (CLtotal) was calculated by Equation (4): (4) CLtotal=QH×fu×(CLint/fu,mic)/QH+(fu/Rb)×(CLint/fu,mic)+CLrenal where QH is hepatic blood flow, fu is the free fraction in plasma, fu,mic is the fraction unbound in HLMs, Rb is blood‐to‐plasma ratio, and CLrenal is renal clearance. The fu,mic value was calculated using the Simcyp population based simulator (Version 16 R1; Simcyp Ltd.). The CLrenal was estimated by multiplying fu by glomerular filtration rate (GFR), assuming glomerular filtration only.
The fold error of the difference between observed and predicted human PK parameters was calculated by dividing the predicted value by the observed value.

[4] = target: T1, human V1B receptor (Homo sapiens, UniProt P47901); test: In vitro [3H]AVP binding assay, membranes of 1321-N1 cells expressing human V1B receptor; settings: 1321-N1 cell membranes, read-out: EC50 of RO model (Ki value for human V1B receptor binding inhibition)
T1 construct: expressed in transfected cells; host or cells: 1321-N1 cells (membranes)
T1 sequence (P47901 1-424): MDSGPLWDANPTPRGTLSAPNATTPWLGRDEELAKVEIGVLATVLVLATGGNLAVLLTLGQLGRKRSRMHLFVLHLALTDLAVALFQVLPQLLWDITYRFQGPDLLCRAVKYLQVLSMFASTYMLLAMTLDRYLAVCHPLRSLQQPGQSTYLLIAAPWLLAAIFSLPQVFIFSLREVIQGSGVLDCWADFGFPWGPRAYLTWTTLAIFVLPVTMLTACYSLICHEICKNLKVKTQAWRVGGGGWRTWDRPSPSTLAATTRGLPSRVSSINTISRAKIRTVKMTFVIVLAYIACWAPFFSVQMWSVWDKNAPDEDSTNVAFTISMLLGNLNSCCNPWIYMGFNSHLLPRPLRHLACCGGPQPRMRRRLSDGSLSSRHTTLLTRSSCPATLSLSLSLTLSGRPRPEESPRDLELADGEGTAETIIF

[5] = test system: depressive-like behavior; set-up: method as in Kamiya et al., 2020; settings: ref Kamiya et al., 2020; cited from earlier work

## CC(C)NC(=O)Cn1c(-c2cccc(Cl)c2)nn(-c2ccc(CCN3CCOCC3)cc2)c1=O [THY1773]
[1]
  CLint in liver microsomes: 22.0 μL/min/mg protein
[2]; by CYP3A, ketoconazole 1 μmol/L
  fm (fraction metabolized): 0.914
[2]; with ketoconazole 1 μmol/L, mean of duplicate
  CLint: 0.961 ^a μl/min/mg
[3]; FCIM
  Predicted human CLtotal: 1.07 mL/min/kg
[3]; IVIVE method with ESF
  Predicted human CLtotal: 1.06 mL/min/kg
[3]; IVIVE method without ESF
  Predicted human CLtotal: 0.25 mL/min/kg
[3]; Two species allometry (rat and dog)
  Predicted human CLtotal: 3.73 mL/min/kg
[4]
  Ki: 3.51 nM
[5]
  Effect on depressive-like behavior induced by repeated corticosterone injection: significantly improved
